Assays:
Format in all cases: in vivo
[1] = test system: Rhipicephalus sanguineus ticks; test: Study C: tick efficacy of Compound 1 and fipronil alone and with amitraz in dogs
Experimental: (§1) The effectiveness of Compound 1 alone, fipronil alone, Compound 1 in combination with amitraz, or fipronil in combination with amitraz, when administered once as topical solutions to dogs against induced infestations of Rhipicephalus sanguineus and Ctenocephalides felis were determined in a third clinical study. Thirty-six beagles (18 males and 18 females) were selected for the study. Six replicates of 6 animals each were formed. Treatment Group 1 dogs were treated with a placebo. Treatment Groups 2, 3, 4, 5 and 6 received their respective treatments as a topical spot-on application once on Day 0. Each formulation included diethyleneglycol monoethyl ether (transcutol) as carrier. The Treatment Groups were: Treatment Group 2: fipronil at 0.1 mL/kg body weight (10 mg/kg); Treatment Group 3: Compound 1 at 0.1 mL/kg (10 mg/kg) body weight; Treatment Group 4: Compound 1 at 0.2 mL/kg (20 mg/kg) body weight; Treatment Group 5: Compound 1 at 0.1 mL/kg (10 mg/kg) body weight plus amitraz at 0.04 mL/kg (8 mg/kg) body weight; Treatment Group 6: fipronil at 0.1 mL/kg (10 mg/kg) body weight plus amitraz at 0.04 mL/kg (8 mg/kg) body weight. Treatment was applied by parting the hair and applying the formulation(s) directly onto the skin on one spot at the midline of the neck, except for Groups 4, 5 and 6 which were applied in approximately equal volumes on two spots, one spot between the base of the skull and the shoulder blades and the other at the front of the shoulder blades.
All dogs were infested with approximately 50 Rhipicephalus sanguineus ticks on Days −1, 7, 14, 21, 28, 35, 42, 49 and 56. Dogs were also infested with approximately 100 Ctenocephalides felis fleas on Days −1, 8, 15, 22, 29, 36, 43, 50 and 57. […] Tables 8 and 9 below show the % efficacy of formulations comprising fipronil at 0.1 ml/kg of body weight, Compound 1 at […], and fipronil and Compound 1 both at 10 ml/kg in combination with amitraz at 0.04 ml/kg of body weight compared to control group without active compounds. The percent reduction in flea counts of the treated groups with respect to the Control group over the study is shown in FIG. 14.

[2] = test system: Ctenocephalides felis fleas; test: Study C: flea efficacy of Compound 1 and fipronil alone and with amitraz in dogs
Experimental: as §1
All dogs were infested with approximately 50 Rhipicephalus sanguineus ticks on Days −1, 7, 14, 21, 28, 35, 42, 49 and 56. Dogs were also infested with approximately 100 Ctenocephalides felis fleas on Days −1, 8, 15, 22, 29, 36, 43, 50 and 57. Ectoparasites were removed and counted on Day 2, approximately 48 hours after treatment and on Days 9, 16, 23, 30, 37, 44, 51 and 58 approximately 24 hours after flea infestation and 48 hours after tick infestation. Tables 8 and 9 below show the % efficacy of formulations comprising fipronil at 0.1 ml/kg of body weight, Compound 1 at […], and fipronil and Compound 1 both at […] in combination with amitraz at 0.04 ml/kg of body weight compared to control group without active compounds. The percent reduction in flea counts of the treated groups with respect to the Control group over the study is shown in FIG. 14.

Ctenocephalides felis = test: Study D: flea efficacy of Compound 1 and fipronil in cats
Experimental: A fourth clinical study was conducted to determine the efficacy of topically administered Compound 1 and fipronil against induced infections of Ctenocephalides felis in cats. Twenty four cats (17 males, 7 females) were included in the study. Six replicates of four cats each were formed based on decreasing Day −5 flea counts. Within replicates, cats were randomly allocated to Treatment Groups 1, 2, 3 or 4, respectively, by using a die: Group 1—untreated (vehicle control); Group 2—Compound 1 (10 mg/kg); Group 3—Compound 1 (20 mg/kg); Group 4—fipronil (10 mg/kg). Treatment was performed by topical administration of the formulations in the midline of the neck, between the base of the skull and the shoulder blades in a single spot after parting the hair. Animals were observed hourly for approximately four hours following treatment.
The cats were infested with approximately 100 Ct. felis fleas each during acclimation on Day −6 for allocation purposes, and on Days −1, 14, 21, 28, 35 and 42 for treatment efficacy evaluation purposes. The fleas were removed by combing each cat approximately 24 hours following each infestation except for the Day −1 infestation which was followed by flea removal and count on Day 1 (˜48 hours following infestation).

[3] = test system: adult brown dog ticks (Rhipicephalus sanguineus); test: Tick DMSO contact assay, Compound 1 with amitraz, Example 15; conditions: for Synergistic Ratio (EC50): EC50 alone divided by EC50 with Amitraz (12.5 ppm); for Synergistic Ratio (EC90): EC90 alone divided by EC90 with Amitraz (12.5 ppm)
Experimental: Dosages were serially diluted using this same formulation.
Scintillation vials were treated with commercial and experimental compounds using the same procedure described in Example 12 above. The treated vials were used to determine the contact toxicity of compounds against adult brown dog ticks (Rhipicephalus sanguineus). The ticks were supplied by Ecto Services Inc. Henderson, N.C.
Unfed adult ticks were released into a metal pan and 10 living ticks were aspirated into each vial. […] Two replicates were tested for each treatment and the results were averaged. Ticks were stimulated by gently exhaling in the vials. Within the same time period, the addition of amitraz to an equal dosage of compound 1 increased mean mortality.

In the case of `Cc1c([S+]([O-])C(F)(Cl)Cl)c(C#N)nn1-c1c(F)cc(C(F)(F)F)cc1Cl` (stereo not drawn) [Compound 1, 3-cyano-1-(2-chloro-6-fluoro-4-trifluoromethylphenyl)-4-dichlorofluoromethylsulfinyl-5-methyl-1H-pyrazole], the “% Efficacy (Tick Efficacy)” value ([1]; Day 1, 10 mg/kg) was 88.1%, the “% Efficacy (Tick Efficacy)” value ([1]; Day 1, 20 mg/kg) was 98.6% and the “% Efficacy (Tick Efficacy)” value ([1]; Day 2, 10 mg/kg) was 96.8%. For the same compound, the “% Efficacy (Tick Efficacy)” value ([1]; Day 2, 20 mg/kg) was 98.9%, the “% Efficacy (Tick Efficacy)” value ([1]; Day 8, 10 mg/kg) was 93.5% and the “% Efficacy (Tick Efficacy)” value ([1]; Day 8, 20 mg/kg) was 98.6%. The “% Efficacy (Tick Efficacy)” value ([1]; Day 9, 10 mg/kg) was 97.7%, the “% Efficacy (Tick Efficacy)” value ([1]; Day 9, 20 mg/kg) was 100% and the “% Efficacy (Tick Efficacy)” value ([1]; Day 15, 10 mg/kg) was 98.5%. For the same compound, the “% Efficacy (Tick Efficacy)” value ([1]; Day 15, 20 mg/kg) was 99.3%, the “% Efficacy (Tick Efficacy)” value ([1]; Day 16, 10 mg/kg) was 100% and the “% Efficacy (Tick Efficacy)” value ([1]; Day 16, 20 mg/kg) was 100%. The “% Efficacy (Tick Efficacy)” value ([1]; Day 23, 10 mg/kg) was 98.4%, the “% Efficacy (Tick Efficacy)” value ([1]; Day 23, 20 mg/kg) was 100% and the “% Efficacy (Tick Efficacy)” value ([1]; Day 30, 10 mg/kg) was 99%. The “% Efficacy (Tick Efficacy)” value ([1]; Day 30, 20 mg/kg) was 99.5%, the “% Efficacy (Tick Efficacy)” value ([1]; Day 37, 10 mg/kg) was 94.3% and the “% Efficacy (Tick Efficacy)” value ([1]; Day 37, 20 mg/kg) was 98.6%. The “% Efficacy (Tick Efficacy)” value ([1]; Day 44, 10 mg/kg) was 92.4%, the “% Efficacy (Tick Efficacy)” value ([1]; Day 44, 20 mg/kg) was 92.3% and the “% Efficacy (Tick Efficacy)” value ([1]; Day 51, 10 mg/kg) was 84.7%. The “% Efficacy (Tick Efficacy)” value ([1]; Day 51, 20 mg/kg) was 86.5%, the “% Efficacy (Tick Efficacy)” value ([1]; Day 58, 10 mg/kg) was 83.1% and the “% Efficacy (Tick Efficacy)” value ([1]; Day 58, 20 mg/kg) was 87.4%. For the same compound, the “% Efficacy against fleas” value ([2]; Day 2, 10 mg/kg) was 100%, the “% Efficacy against fleas” value ([2]; Day 2, 20 mg/kg) was 100% and the “% Efficacy against fleas” value ([2]; Day 9, 10 mg/kg) was 100%. For the same compound, the “% Efficacy against fleas” value ([2]; Day 9, 20 mg/kg) was 100%, the “% Efficacy against fleas” value ([2]; Day 16, 10 mg/kg) was 100% and the “% Efficacy against fleas” value ([2]; Day 16, 20 mg/kg) was 100%. The “% Efficacy against fleas” value ([2]; Day 23, 10 mg/kg) was 100%, the “% Efficacy against fleas” value ([2]; Day 23, 20 mg/kg) was 100% and the “% Efficacy against fleas” value ([2]; Day 30, 10 mg/kg) was 99.8%. The “% Efficacy against fleas” value ([2]; Day 30, 20 mg/kg) was 100%, the “% Efficacy against fleas” value ([2]; Day 37, 10 mg/kg) was 99.4% and the “% Efficacy against fleas” value ([2]; Day 37, 20 mg/kg) was 100%. The “% Efficacy against fleas” value ([2]; Day 44, 10 mg/kg) was 98.6%, the “% Efficacy against fleas” value ([2]; Day 44, 20 mg/kg) was 100% and the “% Efficacy against fleas” value ([2]; Day 51, 10 mg/kg) was 98.5%. The “% Efficacy against fleas” value ([2]; Day 51, 20 mg/kg) was 99.8%, the “% Efficacy against fleas” value ([2]; Day 58, 10 mg/kg) was 94.6% and the “% Efficacy against fleas” value ([2]; Day 58, 20 mg/kg) was 100%. The “% Efficacy against fleas” value (Ctenocephalides felis; Day 1, 10 mg/kg) was 99.84%, the “% Efficacy against fleas” value (Ctenocephalides felis; Day 1, 20 mg/kg) was 100% and the “% Efficacy against fleas” value (Ctenocephalides felis; Day 15, 10 mg/kg) was 99.81%. For the same compound, the “% Efficacy against fleas” value (Ctenocephalides felis; Day 15, 20 mg/kg) was 100%, the “% Efficacy against fleas” value (Ctenocephalides felis; Day 22, 10 mg/kg) was 100% and the “% Efficacy against fleas” value (Ctenocephalides felis; Day 22, 20 mg/kg) was 100%. For the same compound, the “% Efficacy against fleas” value (Ctenocephalides felis; Day 29, 10 mg/kg) was 100%, the “% Efficacy against fleas” value (Ctenocephalides felis; Day 29, 20 mg/kg) was 100% and the “% Efficacy against fleas” value (Ctenocephalides felis; Day 36, 10 mg/kg) was 99.43%. For the same compound, the “% Efficacy against fleas” value (Ctenocephalides felis; Day 36, 20 mg/kg) was 100%, the “% Efficacy against fleas” value (Ctenocephalides felis; Day 43, 10 mg/kg) was 97.28% and the “% Efficacy against fleas” value (Ctenocephalides felis; Day 43, 20 mg/kg) was 100%. The “Synergistic Ratio (EC50)” value ([3]; 6 hour Eval) was 11, the “Synergistic Ratio (EC90)” value ([3]; 6 hour Eval) was >5.72 and the “Synergistic Ratio (EC50)” value ([3]; 24 hour Eval) was 135.3. The “Synergistic Ratio (EC90)” value ([3]; 24 hour Eval) was 111.4, the “Synergistic Ratio (EC50)” value ([3]; 48 hour Eval) was 133.1 and the “Synergistic Ratio (EC90)” value ([3]; 48 hour Eval) was 50.3.

From patent publication US8450357B2, “Compositions comprising an aryl pyrazole and/or a formamidine, methods and uses thereof” (Merial Limited, priority 2008, dated 2013)
